Paper PMC7104723 (Cell Research, 2020)
Several values for one entry are separate records, joined by “and”; a condition that tells them apart may be missing. Identical values can stand only once.

Columns and labels:
HCoV-OC43 = type: in vivo, mice
SARS-CoV-2 S protein = SARS-CoV-2 S protein (Severe acute respiratory syndrome coronavirus 2, UniProt P0DTC2); experiment: cell-based; type: cell-based
MERS-CoV S protein = MERS-CoV S protein (Middle East respiratory syndrome-related coronavirus, UniProt K9N5Q8); experiment: cell-based; type: cell-based
Chain of MERS-CoV S protein (K9N5Q8 18-1353 limits assumed): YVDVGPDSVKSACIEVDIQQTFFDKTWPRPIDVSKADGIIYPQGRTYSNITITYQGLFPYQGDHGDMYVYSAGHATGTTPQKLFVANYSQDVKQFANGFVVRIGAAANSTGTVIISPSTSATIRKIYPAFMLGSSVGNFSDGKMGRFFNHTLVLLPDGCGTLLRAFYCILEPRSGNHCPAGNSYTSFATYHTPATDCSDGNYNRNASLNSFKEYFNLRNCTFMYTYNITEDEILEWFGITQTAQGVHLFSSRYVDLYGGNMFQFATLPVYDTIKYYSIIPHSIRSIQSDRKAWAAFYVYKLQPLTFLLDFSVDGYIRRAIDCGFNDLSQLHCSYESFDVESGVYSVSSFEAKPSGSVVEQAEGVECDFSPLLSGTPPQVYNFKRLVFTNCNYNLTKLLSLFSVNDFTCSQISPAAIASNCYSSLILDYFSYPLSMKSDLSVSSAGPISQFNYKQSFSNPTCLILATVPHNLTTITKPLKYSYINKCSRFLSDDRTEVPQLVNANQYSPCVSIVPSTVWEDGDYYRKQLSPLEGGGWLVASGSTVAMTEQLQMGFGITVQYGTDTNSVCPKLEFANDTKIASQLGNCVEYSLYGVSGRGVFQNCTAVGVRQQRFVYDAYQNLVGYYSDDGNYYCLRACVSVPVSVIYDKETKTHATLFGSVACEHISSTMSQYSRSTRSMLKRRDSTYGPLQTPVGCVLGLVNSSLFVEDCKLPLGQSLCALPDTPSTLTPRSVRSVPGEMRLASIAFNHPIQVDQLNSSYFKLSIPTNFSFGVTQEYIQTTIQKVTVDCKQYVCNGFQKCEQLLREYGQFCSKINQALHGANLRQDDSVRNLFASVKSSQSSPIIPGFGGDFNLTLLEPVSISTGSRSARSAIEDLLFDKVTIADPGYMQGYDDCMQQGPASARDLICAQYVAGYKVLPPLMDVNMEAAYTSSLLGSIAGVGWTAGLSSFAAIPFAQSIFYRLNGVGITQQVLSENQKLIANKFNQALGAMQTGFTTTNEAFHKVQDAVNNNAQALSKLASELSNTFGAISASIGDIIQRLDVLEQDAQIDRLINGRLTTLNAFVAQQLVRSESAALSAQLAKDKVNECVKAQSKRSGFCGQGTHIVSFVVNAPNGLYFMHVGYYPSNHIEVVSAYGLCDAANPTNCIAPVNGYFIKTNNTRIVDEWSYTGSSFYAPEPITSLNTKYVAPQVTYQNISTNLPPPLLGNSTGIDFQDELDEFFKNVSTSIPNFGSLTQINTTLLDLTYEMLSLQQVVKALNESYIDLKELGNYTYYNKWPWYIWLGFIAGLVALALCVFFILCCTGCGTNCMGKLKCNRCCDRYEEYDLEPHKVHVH

MERS-CoV PsV = settings: 72 h
SARS-CoV PsV = settings: 72 h
SARS-CoV S protein = SARS-CoV S protein (Severe acute respiratory syndrome coronavirus, UniProt P59594); experiment: cell-based; type: cell-based
HCoV-OC43 PsV = settings: 72 h
HCoV-OC43 S protein = HCoV-OC43 S protein (Human coronavirus OC43, UniProt P36334); experiment: cell-based; type: cell-based
Chain of HCoV-OC43 S protein (P36334 14-1353 limits assumed): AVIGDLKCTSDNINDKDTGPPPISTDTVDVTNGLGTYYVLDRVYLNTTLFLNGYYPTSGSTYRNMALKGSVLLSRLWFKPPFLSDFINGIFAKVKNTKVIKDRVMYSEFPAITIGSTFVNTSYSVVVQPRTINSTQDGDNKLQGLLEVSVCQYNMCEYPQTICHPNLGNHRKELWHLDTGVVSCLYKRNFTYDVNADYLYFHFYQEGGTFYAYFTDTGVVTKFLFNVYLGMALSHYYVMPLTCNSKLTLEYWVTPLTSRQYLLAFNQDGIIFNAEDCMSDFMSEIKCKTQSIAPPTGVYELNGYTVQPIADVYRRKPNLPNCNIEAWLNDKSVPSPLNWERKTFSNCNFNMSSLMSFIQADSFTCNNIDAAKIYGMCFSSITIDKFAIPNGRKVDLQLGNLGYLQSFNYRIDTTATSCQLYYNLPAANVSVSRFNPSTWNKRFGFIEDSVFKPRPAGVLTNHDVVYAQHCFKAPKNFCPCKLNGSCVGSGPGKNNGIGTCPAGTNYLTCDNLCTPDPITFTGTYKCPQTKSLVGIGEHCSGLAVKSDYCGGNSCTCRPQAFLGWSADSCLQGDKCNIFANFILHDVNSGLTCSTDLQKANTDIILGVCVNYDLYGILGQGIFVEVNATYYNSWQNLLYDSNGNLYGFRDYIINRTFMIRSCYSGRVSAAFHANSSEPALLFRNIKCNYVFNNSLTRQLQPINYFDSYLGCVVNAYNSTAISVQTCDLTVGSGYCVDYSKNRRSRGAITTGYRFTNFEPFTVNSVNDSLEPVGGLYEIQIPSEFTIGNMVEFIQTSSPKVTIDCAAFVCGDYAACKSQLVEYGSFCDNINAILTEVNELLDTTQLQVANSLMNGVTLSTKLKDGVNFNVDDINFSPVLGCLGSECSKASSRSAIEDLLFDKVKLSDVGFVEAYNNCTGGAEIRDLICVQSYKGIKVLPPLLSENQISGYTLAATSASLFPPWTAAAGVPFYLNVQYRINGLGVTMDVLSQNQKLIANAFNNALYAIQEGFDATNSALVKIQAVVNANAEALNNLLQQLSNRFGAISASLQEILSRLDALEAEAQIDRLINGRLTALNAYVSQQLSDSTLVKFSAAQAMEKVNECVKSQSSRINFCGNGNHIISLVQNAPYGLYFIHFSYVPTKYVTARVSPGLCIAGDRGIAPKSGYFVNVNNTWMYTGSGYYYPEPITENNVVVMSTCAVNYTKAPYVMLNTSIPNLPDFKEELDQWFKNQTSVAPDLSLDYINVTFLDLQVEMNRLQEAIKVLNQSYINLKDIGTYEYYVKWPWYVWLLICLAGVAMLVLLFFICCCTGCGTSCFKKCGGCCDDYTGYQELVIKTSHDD

SARS-2-HR1 = SARS-2-HR1 (Severe acute respiratory syndrome coronavirus 2, UniProt P0DTC2); type: binding, SARS-CoV-2

## CC[C@H](C)[C@H](NC(=O)[C@H](C)NC(=O)[C@H](CCC(=O)O)NC(=O)[C@H](CCC(=O)O)NC(=O)[C@H](CC(C)C)NC(=O)[C@H](CCCCN)NC(=O)[C@H](CCCCN)NC(=O)[C@H](CCSC)NC(=O)[C@H](CCC(=O)O)NC(=O)[C@H](Cc1ccc(O)cc1)NC(=O)[C@H](CCC(=O)O)NC(=O)[C@H](CC(C)C)NC(=O)[C@H](CC(=O)O)NC(=O)[C@H](CC(C)C)NC(=O)[C@H](Cc1ccccc1)NC(=O)[C@@H](NC(=O)[C@@H](NC(=O)[C@H](CC(N)=O)NC(=O)[C@@H](NC(=O)[C@H](CCC(N)=O)NC(=O)[C@H](CC(=O)O)NC(=O)[C@H](CC(C)C)NC(=O)[C@@H](N)CO)[C@@H](C)CC)C(C)C)[C@@H](C)O)C(=O)N[C@@H](CCCCN)C(=O)N[C@@H](CCCCN)C(=O)N[C@@H](CC(C)C)C(=O)N[C@@H](CCC(=O)O)C(=O)N[C@@H](CCC(=O)O)C(=O)N[C@@H](CO)C(=O)N[C@@H](Cc1ccc(O)cc1)C(=O)N[C@H](C(=O)N[C@@H](CC(=O)O)C(=O)N[C@@H](CC(C)C)C(=O)N[C@@H](CCCCN)C(=O)N[C@@H](CCC(=O)O)C(=O)N[C@@H](CC(C)C)C(=O)NCC(=O)N[C@@H](CO)C(=O)NCC(=O)N[C@@H](CO)C(=O)NCC(=O)NCCOCCOCCOCCOCCC(=O)N[C@@H](CSCC(=O)O[C@H]1CC[C@@]2(C)C(=CC[C@H]3[C@@H]4CC[C@H]([C@H](C)CCCC(C)C)[C@@]4(C)CC[C@@H]32)C1)C(N)=O)[C@@H](C)CC [EK1C4]
HCoV-OC43; 0.5 mg/kg intranasal 0.5 h after challenge, day 5, 5 mice, limit of detection lg2.0 TCID50/g
  Viral titer in brain, Post-0.5 group: not detected
HCoV-OC43; 0.5 mg/kg intranasal 0.5 h after challenge, day 5, one mouse
  Brain histopathology, Post-0.5 group: no apparent histopathological changes
HCoV-OC43; 0.5 mg/kg intranasal 0.5 h before challenge, day 5, one mouse
  Brain histopathology, Pre-0.5 group: no apparent histopathological changes
HCoV-OC43; 0.5 mg/kg intranasal 0.5 h before challenge, day 5 after infection, 5 mice, limit of detection lg2.0 TCID50/g
  Viral titer in brain, Pre-0.5 group: not detected
HCoV-OC43; 0.5 mg/kg intranasal 2 h after challenge, day 5, 5 mice, limit of detection lg2.0 TCID50/g
  Mice with high viral titer detected in brain, Post-2 group: 4 out of 5 mice
HCoV-OC43; 0.5 mg/kg intranasal 2 h before challenge, day 5, 5 mice, limit of detection lg2.0 TCID50/g
  Viral titer in brain, Pre-2 group: not detected
HCoV-OC43; 0.5 mg/kg intranasal 2 h before challenge, day 5, one mouse
  Brain histopathology, Pre-2 group: no apparent histopathological changes
HCoV-OC43; 0.5 mg/kg intranasal 4 h before challenge, day 5, 5 mice, limit of detection lg2.0 TCID50/g
  Viral titer in brain, Pre-4 group: not detected
HCoV-OC43; 0.5 mg/kg intranasal 4 h before challenge, day 5, one mouse
  Brain histopathology, Pre-4 group: no apparent histopathological changes
HCoV-OC43; 0.5 mg/kg intranasal 12 h before challenge, day 5, 5 mice, limit of detection lg2.0 TCID50/g
  Viral titer in brain, Pre-12 group: only moderate level of viral titer was detected in brain tissue in one of the 5 mice
HCoV-OC43; 0.5 mg/kg intranasal 12 h before challenge, day 5, one mouse
  Brain histopathology, Pre-12 group: no apparent histopathological changes
HCoV-OC43; 0.5 mg/kg intranasal 24 h before challenge, day 5, 5 mice, limit of detection lg2.0 TCID50/g
  Mice with high viral titer detected in brain, Pre-24 group: all 5 mice
HCoV-OC43; newborn mice, intranasal 0.5 mg/kg 0.5 h after HCoV-OC43 infection
  Survival rate, Post-0.5 group: 100%
HCoV-OC43; newborn mice, intranasal 0.5 mg/kg 2 h after HCoV-OC43 infection
  Survival rate, Post-2 group: 16.7%
HCoV-OC43; newborn mice, single intranasal dose 0.5 mg/kg 0.5 h before HCoV-OC43 challenge (100 TCID50), 14 days
  Final survival rate, Pre-0.5 group: 100%
HCoV-OC43; newborn mice, single intranasal dose 0.5 mg/kg 2 h before HCoV-OC43 challenge (100 TCID50), 14 days
  Final survival rate, Pre-2 group: 100%
HCoV-OC43; newborn mice, single intranasal dose 0.5 mg/kg 4 h before HCoV-OC43 challenge (100 TCID50), 14 days
  Final survival rate, Pre-4 group: 100%
HCoV-OC43; newborn mice, single intranasal dose 0.5 mg/kg 12 h before HCoV-OC43 challenge (100 TCID50), 14 days
  Final survival rate, Pre-12 group: 83%
HCoV-OC43; newborn mice, single intranasal dose 0.5 mg/kg 24 h before HCoV-OC43 challenge (100 TCID50), 14 days
  Final survival rate, Pre-24 group: 0%
HCoV-NL63 PsV
  Fold more active than EK1, HCoV-NL63 PsV infection: ~99 fold
HCoV-NL63 PsV; 72 h
  IC50: 0.0766 µM
SARS-CoV-2 S protein
  Fold more potent than EK1C1, SARS-CoV-2 S-mediated cell–cell fusion: 43 fold
MERS-CoV S protein
  Fold more potent than EK1, MERS-S-mediated cell–cell fusion: 95 fold
WIV1 PsV
  Fold more potent than EK1, WIV1 PsV infection: 175 fold
WIV1 PsV; 72 h
  IC50: 0.0308 µM
MERS-CoV PsV
  IC50: 0.0111 µM
Live HCoV-NL63
  Fold more potent than EK1, live HCoV-NL63 infection: 19 fold
Live HCoV-NL63; 1 h
  IC50: 0.188 µM
Live SARS-CoV-2
  Fold more active than EK1, live SARS-CoV-2 infection: 67 fold
Live SARS-CoV-2; live, 72 h
  IC50: 0.0365 µM
Live HCoV-OC43
  Fold more potent than EK1, live HCoV-OC43 infection: 62 fold
Live HCoV-OC43; 1 h
  IC50: 0.0248 µM
SARS-CoV PsV
  IC50: 0.0117 µM
SARS-CoV S protein
  Fold more active than EK1, SARS-CoV S-mediated cell–cell fusion: about 94 fold
SARS-CoV-2 PsV
  Fold more potent than EK1, SARS-CoV-2 PsV infection: ~150 fold and 149 fold
SARS-CoV-2 PsV; PsV, 72 h
  IC50: 0.0158 µM
HCoV-OC43 PsV
  IC50: 0.0377 µM
HCoV-OC43 S protein
  Fold more potent than EK1, OC43-S-mediated cell–cell fusion: 101 fold
Live MERS-CoV
  Fold more potent than EK1, live MERS-CoV infection: 190 fold
Live MERS-CoV; 72 h
  IC50: 0.0042 µM
Rs3367 PsV
  Fold more potent than EK1, Rs3367 PsV infection: 89 fold
Rs3367 PsV; 72 h
  IC50: 0.0669 µM
Live HCoV-229E
  Fold more potent than EK1, live HCoV-229E infection: 42 fold
Live HCoV-229E; 1 h
  IC50: 0.102 µM
SARS-2-HR1
  Stability and Tm of complex with SARS-2-HR1 compared with EK1 complex: higher stability and increased Tm values
HCoV-229E PsV
  Fold more active than EK1, HCoV-229E PsV infection: about 319 fold
HCoV-229E PsV; 72 h
  IC50: 0.0124 µM
